Read-outs that look alike come from different tables or passages of the source.
Tests used:
Assay type in all cases: cell-based
[1] = test system: NCI-H358 cells (KRAS G12C mutation); assay: Proliferation inhibition measured by CTG (CellTiter Glo), NCI-H358; conditions: Homo sapiens
Description: (§1) NCI-H358 is a human non-small cell lung cancer cell line with KRAS G12C mutation; PANC-1 and AsPC-1 are pancreatic cancer cell lines with KRAS G12D mutation; AGS is a gastric cancer cell line with KRAS G12D mutation; A427 is a lung cancer cell line with KRAS G12D mutation; THP-1 is a leukemia cell line with NRAS G12D mutation; Hs 578T is a breast cancer cell line with HRAS G12D mutation; SW480 is a colon cancer cell lines with KRAS G12V mutation; A375 is a wild type malignant melanoma cell line. The proliferation inhibitory effect of the compounds on various mutations was evaluated by determining the proliferation inhibitory activity of the compounds on these cell lines.
(§2) The assay was conducted on either 384-well plates or 96-well plates. The procedures are as follows:
(§3) The cell suspensions were added to 384- or 96-well plates (384-well plate: 40 μL; 96-well plate: […]) except for peripheral wells. The plates were incubated in a carbon dioxide incubator overnight. Prepared compounds (10 concentration gradients by serial 3-fold dilution) were added to the wells. The cell plates were incubated in a carbon dioxide incubator for 120 hours. CellTiter Glo reagent (384 well plate: 25 μL; 96 well plate: 100 μL) was added to the 384- or 96-well plates. The plates were shaken for 10 minutes away from light, and incubated for 10 minutes. The plates were read by EnVision system. Inhibition curves were plotted using XLFit and IC50 values were calculated. “IC50>10 μM” is denoted by “*”, “10 μM≥IC50>1 μM” is denoted by “**”, “1 μM≥IC50>100 nM” is denoted by “***”, and “IC50≤100 nM” is denoted by “****”.

[2] = test system: AsPC-1 pancreatic cancer cell line (KRAS G12D mutation); assay: Proliferation inhibition measured by CTG (CellTiter Glo), AsPC-1; conditions: Homo sapiens, ASPC1
Description: as §1, §2, §3

[3] = test system: A375 wild type malignant melanoma cell line; assay: Proliferation inhibition measured by CTG (CellTiter Glo), A375; conditions: Homo sapiens, A-375
Description: as §1, §2, §3

[4] = test system: AGS gastric cancer cell line (KRAS G12D mutation); assay: Proliferation inhibition measured by CTG (CellTiter Glo), AGS; conditions: CTG, 120 hours incubation
Description: as §1, §2, §3

[5] = test system: SW480 colon cancer cell line (KRAS G12V mutation); assay: Proliferation inhibition measured by CTG (CellTiter Glo), SW480; conditions: Homo sapiens
Description: as §1, §2, §3

[6] = Table 1, CTG, 120 hours incubation, class symbol, read-out: IC50 (H358)
[7] = Table 1, CTG, 120 hours incubation, class symbol
[8] = Table 1, CTG, 120 hours incubation, class symbol, read-out: IC50 (A375)
[9] = Table 3, CTG, 120 hours incubation, class symbol, read-out: IC50 (H358)
[10] = Table 3, class symbol, read-out: IC50 (AGS)
[11] = Table 3, CTG, 120 hours incubation, class symbol, read-out: IC50 (A375)
[12] = Table 3, 120 hours incubation, class symbol, read-out: IC50 (SW480)

SMILES	IC50 [1, 9]	IC50 [4, 10]	IC50 [3, 11]	IC50 [5, 12]	further results
CN1CCC[C@H]1COc1nc2c(c(N3CCc4cnoc4C3)n1)CCN(c1cccc3cccc(Cl)c13)C2 [Comparative compound 1′, reference compound]	–	–	–	–	IC50 [1, 6]: > 10 µM; IC50 ([1]; Table 1, number in parentheses, no unit printed in Table 1 (Table 2 gives the same values of compound 2 in μM), read-out: IC50 (H358)): 17.2 µM; IC50 ([2]; Table 1, number in parentheses, unit not given in Table 1 (legend and Table 2 use μM)): 39.7 µM; IC50 [2, 7]: > 10 µM; IC50 ([3]; Table 1, number in parentheses, unit not given in Table 1 (Table 2 gives the same value in μM), read-out: IC50 (A375)): 22.7 µM; IC50 [3, 8]: > 10 µM
C[C@@H]1Cn2cnc(F)c2CN1c1nc(OC[C@@H]2CCCN2C)nc2cc(-c3cc(O)cc4cccc(Cl)c34)ccc12 [Compound 91]	≤ 0.1 µM	≤ 100 nM	≤ 0.1 µM	≤ 100 nM	–
C[C@@H]1Cn2cnc(F)c2CN1c1nc(OC[C@@H]2CCCN2C)nc2c1CCN(c1cc(F)cc3cccc(Cl)c13)C2 [Compound 117]	≤ 0.1 µM	≤ 100 nM	≤ 0.1 µM	≤ 100 nM	–
COc1cc(N2CCc3c(nc(OC[C@@H]4CCCN4C)nc3N3Cc4cncn4C[C@H]3C)C2)c2c(Cl)cccc2c1 [Compound 85]	0.1 to 1 µM	100 to 1000 nM	1 to 10 µM	100 to 1000 nM	–
C[C@@H]1Cn2cncc2CN1c1nc(OC[C@@H]2CCCN2C)nc2c1CCN(c1cccc3cccc(Cl)c13)C2 [Compound 44]	≤ 0.1 µM	≤ 100 nM	≤ 0.1 µM	≤ 100 nM	IC50 ([1]; Table 2, CTG, 120 hours incubation, read-out: IC50 H358 (G12C)): 0.033 µM; IC50 ([4]; Table 2, read-out: IC50 AGS (G12D)): 24 nM; IC50 ([3]; Table 2, CTG, 120 hours incubation, read-out: IC50 A375 (wide type)): 0.036 µM; IC50 ([5]; Table 2, 120 hours incubation, read-out: IC50 SW480 (G12V)): 25 nM
CC(C)[C@@H](N)C(=O)Oc1cc(N2CCc3c(nc(OC[C@@H]4CCCN4C)nc3N3Cc4c(F)ncn4C[C@H]3C)C2)c2c(Cl)cccc2c1 [Compound 101]	≤ 0.1 µM	≤ 100 nM	≤ 0.1 µM	≤ 100 nM	–
Cc1ncc2n1CCN(c1nc(OC[C@@H]3CCCN3C)nc3c1CCN(c1cccc4cccc(Cl)c14)C3)C2 [Compound 5]	–	–	–	–	IC50 [1, 6]: 1 to 10 µM; IC50 [2, 7]: 1 to 10 µM; IC50 [3, 8]: 1 to 10 µM
C[C@@H]1Cn2cnc(F)c2CN1c1nc(OC[C@@H]2CCCN2C)nc2c1CCN(c1cc(NS(C)(=O)=O)cc3cccc(Cl)c13)C2 [Compound 112]	1 to 10 µM	100 to 1000 nM	1 to 10 µM	100 to 1000 nM	–
C[C@@H]1Cn2cnc(F)c2CN1c1nc(OC[C@@H]2CCCN2C)nc2cc(-c3cc(OC(=O)C(C)(C)C)cc4cccc(Cl)c34)ccc12 [Compound 92]	≤ 0.1 µM	≤ 100 nM	≤ 0.1 µM	≤ 100 nM	–
C[C@@H]1Cn2cncc2CN1c1nc(OC[C@@H]2CCCN2C)nc2c1CCN(c1cccc3c1CCCC3)C2 [Compound 84]	1 to 10 µM	100 to 1000 nM	1 to 10 µM	100 to 1000 nM	–
CCc1ccc(NC(=O)Oc2cc(N3CCc4c(nc(OC[C@@H]5CCCN5C)nc4N4Cc5c(F)ncn5C[C@H]4C)C3)c3c(Cl)cccc3c2)cc1 [Compound 103]	≤ 0.1 µM	≤ 100 nM	≤ 0.1 µM	≤ 100 nM	–
C[C@@H]1Cn2cnc(F)c2CN1c1nc(OC[C@@H]2CCCN2C)nc2cc(-c3cccc4cccc(Cl)c34)ccc12 [Compound 88]	≤ 0.1 µM	≤ 100 nM	0.1 to 1 µM	≤ 100 nM	–
CC1Cc2[nH]ncc2CN1c1nc(OC[C@@H]2CCCN2C)nc2c1CCN(c1cccc3cccc(Cl)c13)C2 (stereo partly shown) [Compound 118]	0.1 to 1 µM	≤ 100 nM	0.1 to 1 µM	≤ 100 nM	–
C[C@@H]1Cn2cnc(Cl)c2CN1c1nc(OCC2CCCN2C)nc2c1CCN(c1cccc3cccc(Cl)c13)C2 (stereo partly shown) [Compound 86]	≤ 0.1 µM	≤ 100 nM	≤ 0.1 µM	≤ 100 nM	–
C[C@@H]1Cn2cnc(F)c2CN1c1nc(OC[C@@H]2CCCCN2C)nc2c1CCN(c1cccc3cccc(F)c13)C2 [Compound 113]	≤ 0.1 µM	≤ 100 nM	≤ 0.1 µM	≤ 100 nM	–
CN1CCC[C@H]1COc1nc2c(c(N3CCn4cncc4C3)n1)CO[C@H](c1cccc3cccc(Cl)c13)C2 [Compound 3]	–	–	–	–	IC50 [1, 6]: 0.1 to 1 µM; IC50 [2, 7]: 1 to 10 µM; IC50 [3, 8]: 1 to 10 µM
C[C@@H]1Cn2cnc(F)c2CN1c1nc(OC[C@@H]2CCCN2C)nc2c1CCN(c1cc(O)cc3cccc(Cl)c13)C2 [Compound 78]	≤ 0.1 µM	≤ 100 nM	≤ 0.1 µM	≤ 100 nM	–
[2H]C([2H])([2H])N1CCC[C@H]1COc1nc2c(c(N3Cc4cncn4C[C@H]3C)n1)CCN(c1cccc3cccc(Cl)c13)C2 [Compound 77]	≤ 0.1 µM	≤ 100 nM	≤ 0.1 µM	≤ 100 nM	–
C#Cc1c(F)ccc2cc(O)cc(N3CCc4c(nc(OC[C@@H]5CCCN5C)nc4N4Cc5c(F)ncn5C[C@H]4C)C3)c12 [Compound 108]	0.1 to 1 µM	≤ 100 nM	0.1 to 1 µM	≤ 100 nM	–
CC(=O)Nc1cc(N2CCc3c(nc(OC[C@@H]4CCCN4C)nc3N3Cc4c(F)ncn4C[C@H]3C)C2)c2c(Cl)cccc2c1 [Compound 111]	1 to 10 µM	1000 to 10000 nM	1 to 10 µM	100 to 1000 nM	–
CN1CCC[C@H]1COc1nc2c(c(N3CCn4cnc(C(N)=O)c4C3)n1)CCN(c1cccc3cccc(Cl)c13)C2 [Compound 52]	0.1 to 1 µM	100 to 1000 nM	1 to 10 µM	1000 to 10000 nM	–
CNC(=O)Oc1cc(N2CCc3c(nc(OC[C@@H]4CCCN4C)nc3N3Cc4c(F)ncn4C[C@H]3C)C2)c2c(Cl)cccc2c1 [Compound 98]	≤ 0.1 µM	≤ 100 nM	≤ 0.1 µM	≤ 100 nM	–
C[C@@H]1Cn2cnc(F)c2CN1c1nc(OC[C@@H]2CCCN2C)nc2c1CCN(c1cc(OC(=O)N(C)C)cc3cccc(Cl)c13)C2 [Compound 97]	≤ 0.1 µM	≤ 100 nM	0.1 to 1 µM	≤ 100 nM	–
C[C@@H]1Cn2cncc2CN1c1nc(O[C@@H]2CCN(C)C2)nc2c1CCN(c1cccc3cccc(Cl)c13)C2 [Compound 57]	≤ 0.1 µM	≤ 100 nM	0.1 to 1 µM	≤ 100 nM	–

From US20230391785A1, “NITROGEN-CONTAINING HETEROCYCLIC COMPOUND, METHOD FOR PREPARING SAME AND USE OF SAME” (280 Bio, Inc., priority 2021, published 2023)
